Source: ChEMBL document CHEMBL3822445, “Histone demethylating agents as potential S-adenosyl-l-methionine-competitors” (Medchemcomm, 2016)
Calls of active or inactive are those of the source. The rule behind the calls is not given here.

Columns and labels:
[1] = system: MCF7; assay: Inhibition of DNA methylation in human MCF7 cells assessed as reduction in H3K27me3 levels at 15 uM after 48 hrs by Western blot analysis; type: cell-based
[2] = system: MCF7; assay: Inhibition of DNA methylation in human MCF7 cells assessed as reduction in H3K9me3 levels at 15 uM after 48 hrs by Western blot analysis; type: cell-based
[3] = system: MCF7; assay: Antiproliferative activity against human MCF7 cells after 48 to 72 hrs by MTT assay; type: functional, cell-based
[4] = Antiproliferative activity against human H460 cells after 48 to 72 hrs by MTT assay; type: functional, cell-based; conditions: NCI-H460
[5] = system: MSTO-211H; assay: Antiproliferative activity against human MSTO-211H cells after 48 to 72 hrs by MTT assay; type: functional, cell-based
[6] = system: MCF7; assay: Cell cycle arrest in human MCF7 cells assessed as accumulation at G0/G1 phase at 15 uM after 24 hrs by flow cytometry relative to control; type: functional
[7] = system: MCF7; assay: Induction of apoptosis in human MCF7 cells assessed as viable cells at 15 uM after 48 hrs by AnnexinV-FITC staining based flow cytometry (reference value: 74.4 +/- 9.1 %); type: functional; conditions: MCF7, 48 h, read-out: Activity
[8] = system: MCF7; assay: Induction of apoptosis in human MCF7 cells assessed as viable cells at 15 uM after 72 hrs by AnnexinV-FITC staining based flow cytometry (reference value: 60.5 +/- 6 %); type: functional; conditions: MCF7, 72 h, read-out: Activity
[9] = system: MCF7; assay: Induction of apoptosis in human MCF7 cells assessed as early apoptotic cells at 15 uM after 48 hrs by AnnexinV-FITC staining based flow cytometry (reference value: 7.8 +/- 5.3 %); type: functional
[10] = system: MCF7; assay: Induction of apoptosis in human MCF7 cells assessed as early apoptotic cells at 15 uM after 72 hrs by AnnexinV-FITC staining based flow cytometry (reference value: 20.1 +/- 7.3 %); type: functional
[11] = system: MCF7; assay: Induction of apoptosis in human MCF7 cells assessed as late apoptotic cells at 15 uM after 48 hrs by AnnexinV-FITC staining based flow cytometry (reference value: 7.6 +/- 5.9 %); type: functional
[12] = system: MCF7; assay: Induction of apoptosis in human MCF7 cells assessed as late apoptotic cells at 15 uM after 72 hrs by AnnexinV-FITC staining based flow cytometry (reference value: 11.8 +/- 2.2 %); type: functional
[13] = system: MCF7; assay: Induction of apoptosis in human MCF7 cells assessed as necrotic cells at 15 uM after 48 hrs by AnnexinV-FITC staining based flow cytometry (reference value: 10.2 +/- 1.9 %); type: functional
[14] = system: MCF7; assay: Induction of apoptosis in human MCF7 cells assessed as necrotic cells at 15 uM after 72 hrs by AnnexinV-FITC staining based flow cytometry (reference value: 7.6 +/- 1 %); type: functional
[15] = biological target: T1, Histone-lysine N-methyltransferase EHMT2 (Homo sapiens) (UniProt Q96KQ7); assay: Inhibition of G9a in human MCF7 nuclear extracts assessed as reduction in H3K9 levels at 15 uM after 48 hrs; type: cell-based
T1 sequence (whole entry): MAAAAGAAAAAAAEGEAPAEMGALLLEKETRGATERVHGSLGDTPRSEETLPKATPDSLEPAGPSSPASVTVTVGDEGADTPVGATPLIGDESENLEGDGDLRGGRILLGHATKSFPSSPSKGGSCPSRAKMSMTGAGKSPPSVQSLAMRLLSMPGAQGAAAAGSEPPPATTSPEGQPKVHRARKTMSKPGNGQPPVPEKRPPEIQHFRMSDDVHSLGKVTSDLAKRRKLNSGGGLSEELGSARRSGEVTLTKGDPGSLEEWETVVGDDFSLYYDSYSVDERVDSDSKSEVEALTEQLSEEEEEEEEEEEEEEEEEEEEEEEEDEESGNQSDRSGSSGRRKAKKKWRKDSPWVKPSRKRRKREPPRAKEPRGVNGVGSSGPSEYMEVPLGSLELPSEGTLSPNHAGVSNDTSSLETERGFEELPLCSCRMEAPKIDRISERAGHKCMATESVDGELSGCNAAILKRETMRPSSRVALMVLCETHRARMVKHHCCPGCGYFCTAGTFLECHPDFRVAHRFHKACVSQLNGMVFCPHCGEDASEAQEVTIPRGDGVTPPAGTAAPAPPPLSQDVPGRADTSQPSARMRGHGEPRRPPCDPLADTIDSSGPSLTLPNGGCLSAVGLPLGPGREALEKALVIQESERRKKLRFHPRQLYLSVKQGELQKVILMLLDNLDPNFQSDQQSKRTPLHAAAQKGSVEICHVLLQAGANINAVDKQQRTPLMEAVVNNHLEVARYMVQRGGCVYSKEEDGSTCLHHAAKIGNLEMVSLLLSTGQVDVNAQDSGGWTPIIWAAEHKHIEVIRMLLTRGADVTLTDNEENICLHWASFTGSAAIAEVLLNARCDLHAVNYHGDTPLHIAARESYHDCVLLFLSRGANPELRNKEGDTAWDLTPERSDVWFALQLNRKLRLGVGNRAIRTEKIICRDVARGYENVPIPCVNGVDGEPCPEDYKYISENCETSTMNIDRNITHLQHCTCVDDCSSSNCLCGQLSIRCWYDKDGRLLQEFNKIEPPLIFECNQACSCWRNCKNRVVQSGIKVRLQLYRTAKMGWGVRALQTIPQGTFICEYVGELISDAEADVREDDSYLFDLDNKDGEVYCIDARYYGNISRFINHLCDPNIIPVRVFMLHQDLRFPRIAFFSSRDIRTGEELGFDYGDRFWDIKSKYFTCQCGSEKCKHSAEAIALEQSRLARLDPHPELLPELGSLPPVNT

[16] = biological target: T1, Histone-lysine N-methyltransferase EHMT2 (Homo sapiens); assay: Inhibition of G9a in human MCF7 nuclear extracts assessed as reduction in H3K27 levels at 15 uM after 48 hrs; type: cell-based
[17] = Antiproliferative activity against human Ovarian cancer LA#83 cells assessed as cell survival at 20 uM after 72 hrs by MTT assay relative to control; type: functional; conditions: read-out: Survival
[18] = Antiproliferative activity against human Ovarian cancer DC#83 cells assessed as cell survival at 20 uM after 72 hrs by MTT assay relative to control; type: functional; conditions: read-out: Survival
[19] = Antiproliferative activity against human Ovarian cancer LA#110 cells assessed as cell survival at 20 uM after 72 hrs by MTT assay relative to control; type: functional; conditions: read-out: Survival
[20] = Antiproliferative activity against human Ovarian cancer DC#110 cells assessed as cell survival at 20 uM after 72 hrs by MTT assay relative to control; type: functional; conditions: read-out: Survival
[21] = system: MCF7; assay: Inhibition of DNA methylation in human MCF7 cells assessed as decrease in 5-methylcytosine level by ELISA; type: cell-based
[22] = system: MCF7; assay: Inhibition of DNA methylation in human MCF7 cells assessed as decrease in methylation of RARbeta DNA by qPCR method; type: cell-based
[23] = system: MCF7; assay: Cell cycle arrest in human MCF7 cells assessed as accumulation at G2/M phase at 15 uM after 72 hrs by flow cytometry relative to control; type: functional
[24] = system: MCF7; assay: Inhibition of DNA methylation in human MCF7 cells assessed as reduction in H3K9me3 levels at 3 uM after 48 hrs by Western blot analysis; type: cell-based
[25] = system: MCF7; assay: Inhibition of DNA methylation in human MCF7 cells assessed as reduction in H3K27me3 levels at 3 uM after 48 hrs by Western blot analysis; type: cell-based

Structure (SMILES)	inhibition [1]	inhibition [2]	IC50 [3] [µM]	IC50 [4] [µM]	IC50 [5] [µM]	viability at 15 µM [7] [%]	viability at 15 µM [8] [%]	Activity [9] [%]	Activity [10] [%]	Activity [11] [%]	Activity [12] [%]	Activity [13] [%]	Activity [14] [%]	inhibition [15]	inhibition [16]	viability at 20 µM [17] [%]	viability at 20 µM [18] [%]	viability at 20 µM [19] [%]	viability at 20 µM [20] [%]	inhibition [22]	also measured
CCCCN1C(=O)[C@@H]2Cc3c(n(CO)c4ccccc34)CN2C1=O	40%	50%	38.7	> 20	> 20	69.4	58.6	13.1	20.6	13.5	13.7	4.1	7.1	Active	Active	91.8	96	71.8	93.8	Active	Activity [6]: 3%; inhibition [21]: Active
CN1CCN(C(=O)[C@H]2Cc3c([nH]c4ccccc34)[C@@H]3N(C)c4ccccc4C(=O)N23)CC1	30%	70%	34.8	9.05	6.6	64.6	54.7	13.6	23.3	12.2	15.8	9.6	6.2	Active	Active	77.3	84.2	56.7	87.7	Active	Activity [23]: Active; inhibition [21]: Active
Cc1nc(Nc2ncc(C(=O)Nc3c(C)cccc3Cl)s2)cc(N2CCN(CCO)CC2)n1 [DASATINIB]																38.3	73.1	20.5	58.7		
CCCCN1C(=O)[C@H]2Cc3c([nH]c4ccccc34)CN2C1=O	60%	50%	32.3	> 20	> 20	70.4	61.2	12.2	19.5	11	12.1	6.4	7.2	Active	inactive	64.7	91.2	78	86.4	Active	Activity [6]: 3%; inhibition [21]: Active
Cc1ccc(-c2cn3c(n2)sc2ccccc23)cc1	inactive	inactive	30.4	> 20	> 20	61.4	45.2	18.7	29	11.8	21	8.1	4.8	Active	inactive	70.2	90.3	77.1	80.1	inactive	Activity [23]: Active; inhibition [21]: inactive
CN1C(=O)[C@@]23C[C@]4([C@]56C[C@@]78SS[C@@](CO)(C(=O)N7[C@H]5Nc5ccccc56)N(C)C8=O)c5ccccc5N[C@@H]4N2C(=O)[C@]1(CO)SS3 [CHAETOCIN]																-3.25	67.8	-2.63	-4.22	Active	
CCN(CC)CCNC(=O)c1c(C)[nH]c(/C=C2\C(=O)Nc3ccc(F)cc32)c1C [SUNITINIB]																9.8	73.7	2.6	54.2		
COc1cc2nc(N3CCCN(C)CC3)nc(NC3CCN(Cc4ccccc4)CC3)c2cc1OC						67.2	65.8	12.6	13.5	13.8	14.3	6.3	6.3	Active	Active	57	86.2	50.2	73		inhibition [24]: 80%; inhibition [25]: 25%
CCCCN1C(=O)[C@H]2Cc3c(n(CO)c4ccccc34)CN2C1=O	20%	40%	30.7	> 20	> 20	71.1	52.1	8.3	25.5	12.1	15.2	8.5	7.2	Active	Active	67.8	101	56	82.2	Active	Activity [6]: 3%; inhibition [21]: Active
N[C@@H]1C[C@H]1c1ccccc1.N[C@H]1C[C@@H]1c1ccccc1 [TRANYLCYPROMINE]																77.5	102	60.6	93.6		
C#Cc1cccc(Nc2ncnc3cc(OCCOC)c(OCCOC)cc23)c1 [ERLOTINIB]																24.7	94.5	27.7	75.3		
C#CCN(C)Cc1ccccc1 [PARGYLINE]																77.7	96.7	85	59.1		
